# Reference: patent publication US10787448B2, “Indolizino [3,2-C] quinoline-based fluorescent probe” (SEOUL NATIONAL UNIVERSITY R & DB FOUNDATION, priority 2015, dated 2020)
# Values joined by “and” are separate entries in the source; they are usually repeats but may differ in a detail not shown here. Equal values may be shown once. Where a name gives a salt, the structure may show the parent alone.
# Assay: Analysis of optical characteristics (absorption, fluorescence emission, quantum yield) in solvents
# Assay type: physicochemical
# Settings: for peak emission (λmax): aqueous solution (H2O); for Relative fluorescence Emission Intensitynorm: normalized fluorescence intensity; for Relative fluorescence Emission Intensitynorm / Fluorescence Emission Intensity / Peak emission wavelength λmax em(nm): H2O at 2 μM; for Peak emission wavelength λmax em(nm): excited at the longest absorption maxima
# Protocol: Fluorescence emission spectra were obtained at 20° C. using a JASCO FP-6500 spectrofluorometer, a 10 mM stock solution prepared by dissolving an indolizino[3,2-c]quinoline compound in DMSO was diluted in a solvent. […] Absorption spectra were recorded at room temperature using a Perkin Elmer Lamda 20 UV/VIS spectrometer. […]
# Further, the compounds (excluding Entry #51-57, etc.) of Formula 1 were subjected to spectrum analyses in various solvents, and the results are shown in Tables 6 and 7, and FIGS. 5C and 5D.
smiles,measurement,setting,value
"c1cc(-c2nc3ccccc3c3cc4ccccn4c23)nc(-c2nc3ccccc3c3cc4ccccn4c23)c1 [IQ 5-D, 2,6-bis(indolizino[3,2-c]quinolin-6-yl)pyridine]",λex(nm),Table 6,402 nm and 422 nm
same,peak emission (λmax),,543 nm
"COc1ccc(-c2c3c(cc4ccccn43)c3ccccc3[n+]2C)cc1 [IQ 6-S1-Me, 6-(4-methoxyphenyl)-5-methylindolizino[3,2-c]quinolin-5-ium methyl sulfate]",solvent-dependent (environment-sensitive) tendency of the emission,,hardly showed an environment-sensitive optical characteristic
same,λex(nm),Table 6,458 nm
"COc1ccc(-c2c3c(cc4ccccn43)c3ccccc3[n+]2CCCl)cc1 [IQ 6-S2-Cl, 5-(2-chloroethyl)-6-(4-methoxyphenyl)indolizino[3,2-c]quinolin-5-ium trifluoromethanesulfonate]",solvent-dependent (environment-sensitive) tendency of the emission,,hardly showed an environment-sensitive optical characteristic
same,λex(nm),Table 6,464 nm
"CCCCn1cc(-c2c3c4ccccc4nc(-c4ccc(OC)cc4)c3n3ccccc23)nn1 [IQ 6-T, 12-(1-butyl-1H-1,2,3-triazol-4-yl)-6-(4-methoxyphenyl)indolizino[3,2-c]quinoline]",λex(nm),Table 6,403 nm
"COc1ccc(-c2nc3ccccc3c3c(-c4cn(CCOCCOCCOCCNC(=O)CCCCCC5[C@H]6NC(=O)N[C@H]6C[S+]5[O-])nn4)c4ccccn4c23)cc1 (stereo partly drawn) [IQ 6-T-B, N-(2-(2-(2-(2-(4-(6-(4-methoxyphenyl)indolizino[3,2-c]quinolin-12-yl)-1H-1,2,3-triazol-1-yl)ethoxy)ethoxy)ethoxy)ethyl)-6-((3aS,6aR)-5-oxido-2-oxohexahydro-1H-thieno[3,4-d]imidazol-4-yl)hexanamide]",λex(nm),Table 6,437 nm
"COC(=O)c1c2c3ccccc3nc(-c3ccc[nH]3)c2n2ccccc12 [IQ 21, Methyl 6-(1H-pyrrol-2-yl)indolizino[3,2-c]quinoline-12-carboxylate]",solvent-dependent (environment-sensitive) tendency of the emission,,blue-shift
same,peak emission (λmax),,433 nm
"CCOC(=O)c1c2c3ccccc3nc(-c3ccc([N+](=O)[O-])cc3)c2n2ccccc12 [IQ 26, ethyl 6-(4-nitrophenyl)indolizino[3,2-c]quinoline-12-carboxylate]","fluorescence (intensity, in words)",,did not induce fluorescence
"CCOC(=O)c1c2c3ccccc3nc(-c3cccc(F)c3)c2n2ccccc12 [IQ 28, ethyl 6-(3-fluorophenyl)indolizino[3,2-c]quinoline-12-carboxylate]",solvent-dependent (environment-sensitive) tendency of the emission,,solvatochromic effect
"CCOC(=O)c1c2c3ccccc3nc(-c3ccc(OC)c(OC)c3)c2n2ccccc12 [IQ 30, ethyl 6-(3,4-dimethoxyphenyl)indolizino[3,2-c]quinoline-12-carboxylate]",solvent-dependent (environment-sensitive) tendency of the emission,,solvatochromic effect
"C#Cc1c2c3ccccc3nc(-c3ccc(OC)cc3)c2n2ccccc12 [IQ 55, 12-ethynyl-6-(4-methoxyphenyl)indolizino[3,2-c]quinoline]",solvent-dependent (environment-sensitive) tendency of the emission,,hardly showed an environment-sensitive optical characteristic
"COc1ccc(-c2nc3ccccc3c3cc4cc(C#N)ccn4c23)cc1 [IQ 67, 6-(4-methoxyphenyl)indolizino[3,2-c]quinoline-10-carbonitrile]","fluorescence (intensity, in words)",,further high fluorescence intensity in an aqueous solution
"COc1ccc(-c2nc3ccccc3c3cc4c5ccccc5ccn4c23)cc1 [IQ 77, 6-(4-methoxyphenyl)benzo[7,8]indolizino[3,2-c]quinoline]","fluorescence (intensity, in words)",,very high fluorescence intensity at a blue wavelength in EtOH and DMSO
"CCc1nc2ccccc2c2cc3c4ccccc4ccn3c12 [IQ 79, 6-ethylbenzo[7,8]indolizino[3,2-c]quinoline]","fluorescence (intensity, in words)",,very high fluorescence intensity at a blue wavelength in EtOH and DMSO
"Nc1ccc(-c2nc3ccccc3c3cc4ccccn4c23)cc1 [IQ-B1, 4-(indolizino[3,2-c]quinolin-6-yl)aniline]",solvent-dependent (environment-sensitive) tendency of the emission,,"high solvent-dependent (i.e., environment-sensitive) tendency"
"Oc1ccc(-c2nc3ccccc3c3cc4ccccn4c23)cc1 [IQ-B2, 4-(indolizino[3,2-c]quinolin-6-yl)phenol]",solvent-dependent (environment-sensitive) tendency of the emission,,"high solvent-dependent (i.e., environment-sensitive) tendency"
"C(=C\c1nc2ccccc2c2cc3ccccn3c12)/c1ccccc1 [IQ-B4, (E)-6-styrylindolizino[3,2-c]quinoline]",λex(nm),Table 7,415 nm
"COc1ccc(-c2nc3ccccc3c3cc4cc(C=O)ccn4c23)cc1 [IQ-B11, 6-(4-methoxyphenyl)indolizino[3,2-c]quinoline-10-carbaldehyde]",λex(nm),Table 7,427 nm
same,maximum wavelength of fluorescence,Tris buffer (pH 7.5),531 nm
"COc1ccc(/C=C/c2nc3ccccc3c3cc4ccccn4c23)cc1 [IQ-B12, (E)-6-(4-methoxystyryl)indolizino[3,2-c]quinoline]",Abs maximum λ for UV,,344 nm
same,Stokes shift,,≥ 180 nm
"CN(/N=C/c1nc2ccccc2c2cc3ccccn3c12)c1ccccc1 [IQ-B16, (E)-6-((2-methyl-2-phenylhydrazineylidene)methyl)indolizino[3,2-c]quinoline]",λex(nm),Table 7,422 nm
"COc1ccc(-c2nc3ccccc3c3cc4cc(/C=C/n5ccnc5)ccn4c23)cc1 [IQ-B20, (E)-10-(2-(1H-imidazol-1-yl)vinyl)-6-(4-methoxyphenyl)indolizino[3,2-c]quinoline]","fluorescence (intensity, in words)",,high fluorescence in other solvents as well as an aqueous solution
"COc1ccc(-c2nc3ccccc3c3cc4cc(-c5ccc(C=O)cc5)ccn4c23)cc1 [IQ-B23, 4-(6-(4-methoxyphenyl)indolizino[3,2-c]quinolin-10-yl)benzaldehyde]","fluorescence (intensity, in words)",,high fluorescence in DMSO
same,λex(nm),Table 7,434 nm
"COc1ccc(-c2nc3ccccc3c3cc4cc(/C=C/C=O)ccn4c23)cc1 [IQ-B25, (E)-3-(6-(4-methoxyphenyl)indolizino[3,2-c]quinolin-10-yl)acrylaldehyde]","fluorescence (intensity, in words)",,high fluorescence in DMSO
same,λex(nm),Table 7,444 nm
"COc1ccc(-c2nc3ccccc3c3cc4cc(-c5ccc(C(=O)Nc6ccccc6)cc5)ccn4c23)cc1 [IQ-B35, 4-(6-(4-methoxyphenyl)indolizino[3,2-c]quinolin-10-yl)-N-phenylbenzamide]",λex(nm),Table 7,427 nm
"CCN(CC)C(=O)c1ccc(-c2ccn3c(c2)cc2c4ccccc4nc(-c4ccc(OC)cc4)c23)cc1 [IQ-B36, N,N-diethyl-4-(6-(4-methoxyphenyl)indolizino[3,2-c]quinolin-10-yl)benzamide]",λex(nm),Table 7,422 nm
"COc1ccc(-c2nc3ccccc3c3cc4cc(-c5ccc6ccccc6c5)ccn4c23)cc1 [IQ-B39, 6-(4-methoxyphenyl)-10-(naphthalen-2-yl)indolizino[3,2-c]quinoline]",λex(nm),Table 7,423 nm
"COc1ccc(-c2nc3ccccc3c3cc4cc(-c5ccc(C#N)cc5)ccn4c23)cc1 [IQ-B43, 4-(6-(4-methoxyphenyl)indolizino[3,2-c]quinolin-10-yl)benzonitrile]",λex(nm),Table 7,431 nm
"COc1ccc(-c2nc3ccccc3c3cc4cc(/C=C/C#N)ccn4c23)cc1 [IQ-B44, (E)-3-(6-(4-methoxyphenyl)indolizino[3,2-c]quinolin-10-yl)acrylonitrile]",λex(nm),Table 7,436 nm
O=[N+]([O-])c1ccc(-c2nc3ccccc3c3cc4ccccn4c23)cc1 [compound 2],quantum yield (Φ),"DW, standard Rhodamine 6G",0.000
same,quantum yield (Φ),"EtOH, standard Coumarin 153",0.000
same,Relative fluorescence Emission Intensitynorm,,0.00
c1ccc(-c2nc3ccccc3c3cc4ccccn4c23)nc1 [compound 5],Maximum absorption wavelength λmax abs(nm),,400 nm
same,quantum yield (Φ),"DW, standard Rhodamine 6G",0.005
same,quantum yield (Φ),"EtOH, standard Coumarin 153",0.196
same,Fluorescence Emission Intensity,,4.7
same,Peak emission wavelength λmax em(nm),,532 nm
same,Relative fluorescence Emission Intensitynorm,,0.02
COc1cc(OC)cc(-c2nc3ccccc3c3cc4ccccn4c23)c1 [compound 7],quantum yield (Φ),"DW, standard Rhodamine 6G",0.026
same,quantum yield (Φ),"EtOH, standard Coumarin 153",0.756
same,Fluorescence Emission Intensity,,60.8
same,Peak emission wavelength λmax em(nm),,527.5 nm
same,Relative fluorescence Emission Intensitynorm,,0.26
Clc1ccc(-c2nc3ccccc3c3cc4ccccn4c23)s1 [compound 11],Maximum absorption wavelength λmax abs(nm),,407 nm
same,quantum yield (Φ),"DW, standard Rhodamine 6G",0.006
same,quantum yield (Φ),"EtOH, standard Coumarin 153",0.111
same,Fluorescence Emission Intensity,,7.5
same,Peak emission wavelength λmax em(nm),,536 nm
same,Relative fluorescence Emission Intensitynorm,,0.03
Cc1cccn2c1cc1c3ccccc3nc(-c3ccc(Br)cc3)c12 [compound 12],Maximum absorption wavelength λmax abs(nm),,395 nm
same,quantum yield (Φ),"DW, standard Rhodamine 6G",0.131
same,quantum yield (Φ),"EtOH, standard Coumarin 153",0.623
same,Fluorescence Emission Intensity,,11.8
same,Peak emission wavelength λmax em(nm),,531.5 nm
same,Relative fluorescence Emission Intensitynorm,,0.05
Cc1cccn2c1cc1c3ccccc3nc(-c3ccc([N+](=O)[O-])cc3)c12 [compound 13],quantum yield (Φ),"DW, standard Rhodamine 6G",0.000
same,quantum yield (Φ),"EtOH, standard Coumarin 153",0.000
same,Relative fluorescence Emission Intensitynorm,,0.00
Cc1ccc(-c2nc3ccccc3c3cc4c(C)cccn4c23)cc1 [compound 15],quantum yield (Φ),"DW, standard Rhodamine 6G",0.024
same,quantum yield (Φ),"EtOH, standard Coumarin 153",0.654
same,Fluorescence Emission Intensity,,9.4
same,Peak emission wavelength λmax em(nm),,535.5 nm
same,Relative fluorescence Emission Intensitynorm,,0.04
COc1cc(OC)cc(-c2nc3ccccc3c3cc4c(C)cccn4c23)c1 [compound 16],quantum yield (Φ),"DW, standard Rhodamine 6G",0.014
same,quantum yield (Φ),"EtOH, standard Coumarin 153",0.672
same,Fluorescence Emission Intensity,,11.7
same,Peak emission wavelength λmax em(nm),,535 nm
same,Relative fluorescence Emission Intensitynorm,,0.05
COC(=O)c1c2c3ccccc3nc(-c3cccc4ccccc34)c2n2ccccc12 [compound 20],quantum yield (Φ),"DW, standard Rhodamine 6G",0.367
same,quantum yield (Φ),"EtOH, standard Coumarin 153",0.468
same,Fluorescence Emission Intensity,,143.5
same,Peak emission wavelength λmax em(nm),,493 nm
same,Relative fluorescence Emission Intensitynorm,,0.62
